The results in this text go back to the OPERA property sets (Mansouri et al. 2018).

The term boiling point denotes the temperature of boiling at a given pressure. As usually defined, the melting point is the temperature of the solid-liquid transition.

Turning to `Oc1ccc(-c2ccccc2)cc1`, the boiling point was determined as 305 °C, the melting point stood at 166 °C and the ready biodegradability result is reported as “not readily biodegradable”.
As for `C[C@@H]1CC[C@@]2(OC1)O[C@H]1C[C@H]3[C@@H]4CC=C5C[C@@H](O)CC[C@]5(C)[C@H]4CC[C@]3(C)[C@H]1[C@@H]2C`, the melting point stood at 206 °C.
For the molecule `CC(C)COC(=O)c1ccccc1`, the boiling point came to 242 °C.
With `CC(Cl)CCl` (stereo unspecified), the boiling point stood at 95.5 °C, the log10 Henry constant (atm·m³/mol) was -2.55, the log10 Koa is 2.96 and the log10 Koc (L/kg) was 1.67. In addition, the log10 vapour pressure (mmHg) worked out at 1.73, the melting point was -100 °C and the ready biodegradability result is recorded as “not readily biodegradable”.
In the case of `O=CNc1ccccc1`, the boiling point came out at 271 °C, the log10 vapour pressure (mmHg) is -2.45 and the melting point is 46 °C.
The molecule `O=C1CCC[C@@H]2[C@H]3CCCN4CCC[C@@H](CN12)[C@@H]34` (racemic) registered a melting point of 76 °C.
Molecule `O=[N+]([O-])c1cccc(CBr)c1` registered a melting point of 59.3 °C.
`Cc1ccccc1N=Cc1ccccc1` yielded a boiling point of 314 °C.
On the same count and under the same terms, the result for `ClC(Cl)[Si](Cl)(Cl)Cl` reads 145 °C.
Consider `CN1C(=O)CC(c2ccccc2)C1=O` (stereo unspecified), for which the melting point came to 72 °C.
Turning to `CCCCCCCCCCCCCCCC(C)C`, the boiling point turned out to be 311 °C and the melting point was 5.7 °C.
`O=C1C=CC(=Nc2ccc(O)cc2)C=C1` showed a melting point of 160 °C.
Molecule `CN(C)B(F)N(C)C` registered a boiling point of 106 °C and a melting point of -44.3 °C.
`[C-]#[N+]CCCC`: the boiling point worked out at 120 °C.
`CC1(C)CON(Cc2ccccc2Cl)C1=O` displayed a boiling point of 275 °C, a log10 Koc (L/kg) of 2.44, a log10 vapour pressure (mmHg) of -3.84 and a melting point of 25 °C.
Molecule `Nc1ccc(Br)cc1C(=O)O` registered a melting point of 220 °C.
`C[C@]12CC[C@@H](O)C[C@@H]1CC[C@@H]1[C@@H]2[C@H](O)C[C@]2(C)C(=O)CC[C@@H]12` returned a melting point of 235 °C.
For the molecule `OCC(Br)(Br)Br`, the melting point is 81 °C.
The same measure, in the same setting: for `CC[N+](C)(C)C(C)CC(c1ccccc1)c1ccccc1.[Br-]` (stereo unspecified) the value was 204 °C.
Same read-out and setting: for `NC(=O)Nc1cccc2ccccc12` the value was 220 °C.
`CCN(CC)C(=O)SCc1ccc(Cl)cc1`: the log10 Koc (L/kg) was 3.27, the log10 vapour pressure (mmHg) is -4.66 and the melting point was 3.3 °C.
Turning to `CNc1ccc(N)cc1`, the boiling point was 258 °C and the melting point turned out to be 36 °C.
`C1C2CC3CC1CC(C2)C3`: the log10 biodegradation half-life (days) is 3 and the melting point was determined as 205 °C.
As to `NNc1nncc2ccccc12`, the melting point amounted to 172 °C.
In the case of `O=C(O)CCC(=O)c1ccc2c(c1)-c1cccc3cccc-2c13`, the melting point is 208 °C.
Molecule `C=CC(F)(F)C(F)(F)C(F)(F)C(F)(F)C(F)(F)C(F)(F)F` displayed a boiling point of 104 °C.
Molecule `Cn1c(=O)c2c(ncn2C)n(C)c1=O` gave a melting point of 238 °C.
With `CCOP(=O)(N=C1SCCS1)OCC`, the melting point was 41 °C.
For `Cc1cc(C)c(NC(=O)CN(CC(=O)O)CC(=O)O)c(C)c1Br`, the melting point is 199 °C.
As to `CCc1cnccc1C`, the boiling point stood at 198 °C.
`Brc1cncc(Br)c1`: the boiling point stood at 222 °C and the melting point turned out to be 112 °C.
Consider `C[Si](C)(C)Cl`, for which the boiling point stood at 60 °C, the log10 vapour pressure (mmHg) came to 2.37 and the melting point is -40 °C.
Take `CCCC(O)CC` (stereo unspecified): the ready biodegradability result is recorded as “not readily biodegradable”.
For `c1ccc2c(c1)Cc1c-2ccc2ccccc12`, the boiling point was found to be 405 °C, the log10 Henry constant (atm·m³/mol) was -4.58, the log10 biodegradation half-life (days) came out at 2.15 and the log10 vapour pressure (mmHg) is -6.61. In addition, the melting point was 190 °C.
With `O=C(O)c1ccc[nH]1`, the log10 vapour pressure (mmHg) was -5.65.
The molecule `COc1ccc(COC(C)=O)cc1` came in with a boiling point of 270 °C and a melting point of 84 °C.
`CCCc1ccccn1` had a boiling point of 167 °C and a melting point of 2 °C.
For `COC1CCCCC1`, in that order: 133 °C and -74.4 °C.
`c1ccc2c(c1)ccc1c2ccc2c3ccccc3ccc21` yielded a boiling point of 519 °C and a melting point of 368 °C.
Consider `Nc1cc(C(=O)O)ccc1Cl`, for which the melting point was found to be 214 °C.
With `CCB(Cl)CC`, the boiling point stood at 78.5 °C and the melting point was -84.6 °C.
For the molecule `CC(C)N(CCC(C(N)=O)(c1ccccc1)c1ccccn1)C(C)C` (stereo unspecified), the melting point came out at 94.8 °C.
`CNOC` gave a log10 vapour pressure (mmHg) of 2.58.
`Clc1cc(Cl)c2c(Cl)cc(Cl)cc2c1` returned a log10 Koa of 8.28.
`Cn1nnc2ccccc21` gave a boiling point of 270 °C and a melting point of 64.5 °C.
Consider `CC(CO)(CO)CO`, for which the boiling point was determined as 283 °C, the melting point stood at 204 °C and the ready biodegradability result was “not readily biodegradable”.
For `NCCCN`, the boiling point turned out to be 140 °C.
Turning to `CCCCC(CC)COP(=O)(Oc1ccccc1)Oc1ccccc1` (stereo unspecified), the boiling point came to 375 °C, the log10 Henry constant (atm·m³/mol) was -4.27, the log10 vapour pressure (mmHg) is -4.3 and the melting point is -54 °C. For the same molecule, the ready biodegradability result was “not readily biodegradable”.
